This is an account of results in publication PMC6981960 (2019).

The test system of test [1] is NP7 (DNA, aptamer) ATGCGGATCCCGCGCGGCCGGCCAGTGCGCGAAGCTTGCGC
Nature of the test: circular dichroism. The conditions noted are these: 137 mM NaCl, 2.7 mM KCl; PBS pH 7.4, 25 °C; aptamer 2 μM; 4-n-NP 0, 100, 1000 nM; qualitative change near 250 nm. In general terms: Circular dichroism is the unequal absorption of left and right circularly polarised light.

For test [2] the test system is unchanged. The experiment in a line: AuNP colorimetric aggregation assay. Conditions: NaCl added to aggregate AuNPs (10 μL, printed 850 nM), aptamer 4 μM.

Turning to `CCCCCCCCCc1ccc(O)cc1`, the binding entry in test [1] is recorded as “yes”. Consider `CC1(C)S[C@@H]2[C@H](NC(=O)Cc3ccccc3)C(=O)N2[C@H]1C(=O)O`, for which, in test [2] (penicillin G same amount as nonylphenol (200 nM stated)), the binding entry was “no”. Take `Oc1ccccc1`: the binding entry in test [2] (phenol same amount as nonylphenol (200 nM stated)) was “no”. As for `CCCCC(CC)COC(=O)c1ccccc1C(=O)OCC(CC)CCCC` (centres unmarked), the binding result in test [2] (DEHP same amount as nonylphenol (200 nM stated)) is “no”. Regarding `CC(C)(c1ccc(O)cc1)c1ccc(O)cc1`, the binding result in test [2] (bisphenol A same amount as nonylphenol (200 nM stated)) is “weak”.
